{"source": "paper PMC7316778", "about": "(Nature Communications, 2020)", "design_in_all_cases": "human FES cDNA encoding residues 448–822 or human FER cDNA encoding residues 448–820 was amplified by PCR; made in house; host or cells: E. coli BL21(DE3), co-expressing YopH phosphatase", "key": {"FES^S700C [1]": {"target": "T1, FES^S700C (Homo sapiens, UniProt P07332, S700C)", "T1 sequence (P07332 448-822 S700C)": "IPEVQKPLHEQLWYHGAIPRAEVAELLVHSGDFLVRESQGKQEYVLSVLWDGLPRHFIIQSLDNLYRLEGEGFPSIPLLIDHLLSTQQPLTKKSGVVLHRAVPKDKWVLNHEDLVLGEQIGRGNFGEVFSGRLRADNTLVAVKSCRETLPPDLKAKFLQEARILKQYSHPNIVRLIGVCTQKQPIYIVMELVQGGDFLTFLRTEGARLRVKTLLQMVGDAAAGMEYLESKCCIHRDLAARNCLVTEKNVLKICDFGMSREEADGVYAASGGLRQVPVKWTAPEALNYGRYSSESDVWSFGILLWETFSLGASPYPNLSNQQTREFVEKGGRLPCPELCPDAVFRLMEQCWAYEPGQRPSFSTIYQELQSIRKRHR", "assay": "In vitro TR-FRET kinase assay", "type": "biochemical", "conditions": "TR-FRET assay, 5 µM ATP; n = 3; read-out: pIC50 FES^S700C (converted)"}, "FES^S700C [2]": {"target": "T1, FES^S700C", "assay": "PamChip microarray peptide phosphorylation", "type": "biochemical", "conditions": "for Mean signal, time course: Figure 7f, S700C + WEL028, n 3"}, "FES^S700C [3]": {"target": "T1, FES^S700C", "assay": "MS identification of covalent inhibitor-peptide adduct", "conditions": "1 μM, 30 min, rt", "protocol": "Purified FES^S700C (1.2 μg in 38 μL) was treated with WEL028 (2 μL of 20× concentrated stock in DMSO, 1 μM final concentration) or vehicle (as negative control) for 30 min at rt. […] Gel was stained using Coomassie Brilliant Blue R-250, bands were cut out of gel into small blocks and then destained in 500 μL of 50% MeOH in 100 mM NH4HCO3 pH 8.0 for 10 min at rt. Acetonitrile (500 μL) was added for gel blocks dehydration, after which gel blocks were digested with sequencing-grade trypsin (Promega) in 250 μL trypsin buffer (100 mM Tris pH 7.5, 100 mM NaCl, 1 mM CaCl2, 10% acetonitrile) overnight at 37 °C with vigorous shaking. […] Samples were subsequently desalted using StageTips with C18 material. […]\nTryptic peptides were analyzed on a Surveyor nano-LC system (Thermo) hyphenated to a LTQ-Orbitrap mass spectrometer (Thermo) (n = 1)[69]. […] Samples of 10 µl were separated via a trap-elute setup at 250 nL/min flow and analyzed by data-dependent acquisition of one full scan/ top 3 method. For shotgun proteomics, fragmented precursor ions measured twice within 10 s were dynamically excluded for 60 s and ions with z < 2 or unassigned charges were not analyzed. Peptide ID was determined with the Mascot search engine. […]"}}}
{"smiles": "C#CCOc1ccc(Nc2ncc(Cl)c(Nc3ccccc3NC(=O)C=C)n2)c(OC)c1", "note": "[Compound 6]", "values": [{"measurement": "IC50", "setting": "FES^S700C [1]", "result": 3.98, "unit": "nM"}, {"measurement": "Mean signal, time course", "setting": "FES^S700C [2]; time 0 min", "result": -48.0}, {"measurement": "Mean signal, time course", "setting": "FES^S700C [2]; time 5 min", "result": -46.0}, {"measurement": "Mean signal, time course", "setting": "FES^S700C [2]; time 10 min", "result": -41.0}, {"measurement": "Mean signal, time course", "setting": "FES^S700C [2]; time 15 min", "result": -40.0}, {"measurement": "Mean signal, time course", "setting": "FES^S700C [2]; time 20 min", "result": -38.0}, {"measurement": "Mean signal, time course", "setting": "FES^S700C [2]; time 25 min", "result": -35.0}, {"measurement": "Mean signal, time course", "setting": "FES^S700C [2]; time 30 min", "result": -33.0}, {"measurement": "Mean signal, time course", "setting": "FES^S700C [2]; time 35 min", "result": -32.0}, {"measurement": "Mean signal, time course", "setting": "FES^S700C [2]; time 40 min", "result": -32.0}, {"measurement": "Mean signal, time course", "setting": "FES^S700C [2]; time 45 min", "result": -30.0}, {"measurement": "Mean signal, time course", "setting": "FES^S700C [2]; time 50 min", "result": -26.0}, {"measurement": "Mean signal, time course", "setting": "FES^S700C [2]; time 55 min", "result": -29.0}, {"measurement": "Mean signal, time course", "setting": "FES^S700C [2]; time 60 min", "result": -29.0}, {"measurement": "ZAP70 peptide phosphorylation", "setting": "FES^S700C [2]; WEL028 100 nM", "result": "abolished peptide phosphorylation"}, {"measurement": "Covalent adduct by LC-MS/MS", "setting": "FES^S700C [3]", "result": "covalent addition of WEL028 to Cys700"}]}
